Assay results published in patent US5628979A, “Reagent for tumor imaging and therapy” (Antisoma Limited, priority 1991, dated 1997).
Read-outs that look alike come from different tables or passages of the source. Where no end group is shown, it is not given here.

Experiments:
activated platelets = conditions: Kloczewiak et al, cited from earlier work
HEp-2 tumor = experiment: In vivo uptake of 125I-labelled peptide in HEp-2 tumor borne by nude mice (Experiment 2); conditions: 5 minutes after subcutaneous injection
Method: (§1) In vivo experiments were performed in nude mice bearing HEp-2 and HT29 tumors obtained by injecting the nude mice subcutaneously in both flanks with from 2 to 5×10^6 HEp-2 and HT29 tumor cells and the tumors allowed to grow for three weeks.
(§2) In these experiments the nude tumor bearing mice divided into five groups were each injected subcutaneously with the ^125 I-labelled peptide
(§3) ^125 I-YGGLDVGLDVGGY (SEQ ID NO. 2).
(§4) (SEQ ID No. 2), and the uptake of labelled peptide measured against time. For this purpose the five groups were killed at intervals of 5 minutes, 30 minutes, 1 hour, 3 hours, and 6 hours after injection. At this time the blood and tumors were separately removed, weighed and counted for radioactivity, as well as samples taken from all major organs. […] At this point peptide uptake was 10.3% id per gram in blood, 4.5% id per gram in HEp-2 tumor and 3.0% id per gram in HT29 tumor.

[1] = In vivo uptake of 125I-labelled peptide in blood of tumor-bearing nude mice (Experiment 2); conditions: 5 minutes after subcutaneous injection; nude mice bearing HEp-2 and HT29 tumors
Method: as §1, §2, §3, §4

HT29 tumor = experiment: In vivo uptake of 125I-labelled peptide in HT29 tumor borne by nude mice (Experiment 2); conditions: 5 minutes after subcutaneous injection
Method: as §1, §2, §3, §4

[2] = system: tumor associated LDV binding sites; experiment: Binding to tumor associated LDV binding sites / tumor cells in vivo; transportation and clearance; design: species or system nude mice; conditions: in words
Method: as §1, §2, §3, §4

VLA-4 = conditions: in words; expressed in vitro by tumour cells and resting CD4+ T-cells; see Shimizu et al; cited from earlier work

HHLQLLKQLLDV [synthetic dodecapeptide, analogue of the γ400-411 residue, containing the LDV triplet (Kloczewiak et al)]
IC50 (activated platelets; Biochemistry 1989, read-out: concentration for 50% inhibition of fibrinogen binding to activated platelets): > 500 µM
IC50 (activated platelets; as restated, read-out: concentration necessary to obtain 50% inhibition of fibronectin binding to activated platelets): > 500 µM

^125 I-YGGLDVGLDVGGY: radio-labelled thirteen unit peptide YGGLDVGLDVGGY labelled with 125I (also: 125I radiolabel, position not given here)
peptide uptake in HEp-2 tumor (HEp-2 tumor): 4.5 % id per gram
peptide uptake in blood [1]: 10.3 % id per gram
peptide uptake in HT29 tumor (HT29 tumor): 3.0 % id per gram

CS1 sequence of fibronectin: 25-unit oligopeptide having the sequence SEQ ID No. 1 (DELPQLVTLPHPLLHGPEILDVPST)
binding to tumor cells in vivo [2]: bind strongly to tumor cells in vivo
binding to VLA-4 (VLA-4): known to bind to the cell adhesion molecule (CAM) VLA-4
